In PMC6696373 (Molecules, 2019):
Entries after “also recorded” stand apart in the source; their conditions may differ. One block for each substance: values may come before it. Where no end group is shown, it is not given here.

Legend:
[1] = tested on: Caco-2 cell monolayers; settings: cited from earlier work
Experimental: To elucidate the transepithelial transport pathway of WGAPSL, some inhibitors, such as cytochalasin D, wortmannin, sodium azide, and Gly-Pro, were added to Caco-2 cell monolayers (Figure 4).

[2] = tested on: Caco-2 cell monolayers; settings: cited from earlier work; remark: listed apart in the source
Excerpt: The apparent permeability coefficient (Papp) value reflects the velocity of passage through the epithelium.

[3] = tested on: 1:10,000 pepsin, then 1:250 trypsin; assay: simulated gastrointestinal digestion: pepsin in HBSS at pH 2.0, then trypsin at pH 7.5; settings: 37 °C, up to 90 min (pepsin) then 4 h (trypsin)
[4] = Caco-2 cell monolayers in HBSS, apical (AP) and basolateral (BL) sides; settings: human, 37 °C, up to 120 min
[5] = tested on: Caco-2 cell monolayers; assay: Transepithelial transport across Caco-2 cell monolayers; type: in vitro ADME, human; settings: concluded from the efflux ratio in Caco-2 monolayers
Experimental: Caco-2 cells were obtained from China Infrastructure of Cell Line Resource (Beijing, China) and were cultured based on the method of Zhang et al.. Cells were cultured in MEM containing 10% fetal bovine serum, 1 mM nonessential amino acid solution, 1% penicillin-streptomycin, and 1% HEPES buffer. Caco-2 cells were seeded at 5 × 10^5 cells/mL in 25 cm^2 tissue culture flasks, and incubated at 37 °C in 5% CO2 with 95% humidity. The passage number of the cells used in the study was between 30 and 40. The medium in cell cultures were replaced every two days and detached from 70–80% confluency using 0.05% trypsin and 0.02% Ethylene Diamine Tetraacetic Acid (EDTA) solution. For the transport experiments, Caco-2 cells were seeded into a collagen-coated transwell plate (6.5 mm diameter, 0.4 μm pore size Corning Costar) at a density of 1 × 10^5 cells/well. […]
The bilateral transport experiments also assessed transport from the BL to AP side. […]
The Papp values were calculated as follows (Equation (1)):(1) Papp=dQ/dt×1/A×1/C0 where dQ/dt is the permeability rate (mmol/s); A is the membrane area (cm^2); and C0 is the initial concentration of peptide solution in the donor chamber (mM). […]
A standard curve was prepared with a synthetic peptide diluted in HBSS, and the peptide concentrations were 0–3.9 μM. The curve was analyzed as indicated above for the BL samples. […]

[6] = CCK-8 cytotoxicity assay; type: cell-based, human; settings: human, Caco-2, 10 mM peptide in DMEM, 2 h incubation then 4 h with CCK-8, 37 °C, absorbance, three replications, read-out: Survival rate of Caco-2 cells
Experimental: (§1) The effects of the WGAPSL peptide on Caco-2 cell proliferation were observed using the CCK-8 cell counting kit (Dojindo, Japan). The WST-8 (2-(2-methoxy-4-nitrophenyl)-3-(4-nitrophenyl)-5-(2,4-disulfophenyl)-2H-tetrazolium, monosodium salt) reagent was used based on the kit specifications. Caco-2 cells were plated in 96-well culture plates in a final volume of 100 μL/well of culture medium (1 × 10^5 cells/well) at 37 °C in 5% CO2 for 24 h and incubated with 1–10 mM WGAPSL (diluted in DMEM) or DMEM only for 2 h, followed by incubation with 10 μL CCK-8 and incubation for another 4 h and then the absorbance was measured.

[7] = tested on: Caco-2 cells; assay: CCK-8 cytotoxicity assay; type: cell-based, human; settings: 2 h incubation then 4 h with CCK-8, 37 °C, absorbance, three replications
Experimental: as §1

[8] = tested on: Caco-2 cell monolayers; assay: Effects of transport pathway inhibitors on peptide transport in Caco-2 cell monolayers; type: in vitro ADME, human; settings: Caco-2 AP→BL, 2 mM in HBSS pH 7.4, 120 min, LC-MS
Experimental: Prior to transport experiments, Caco-2 cell monolayers were gently rinsed with HBSS, and then incubated for 30 min at 37 °C in 5% CO2. Afterwards, HBSS was drawn from both the AP side and BL side of all wells. HBSS (0.1 mL) with 2 mM WGAPSL was added to the AP side and 0.6 mL of fresh HBSS was added to the BL side. All transwell plates were incubated at 37 °C in 5% CO2 for 30, 60, 90, or 120 min. The transport experiment was done in triplicate for three consecutive days after 21 days, in which the cell model was developed.
Four inhibitors, including transport inhibitors cytochalasin D (a cell tight junction disruptor, 0.5 μg/mL), wortmannin (transcytosis inhibitor, 500 nM), sodium azide (ATP synthesis inhibitor, 10 mM), and Gly-Pro (transport peptide PepT 1 substrate, 10 mM) were applied to identify the transport routes of the peptide. After 120 min, the concentration of the peptide was determined in the basolateral samples [6].
Analysis of AP and BL samples gathered after the transport of WGAPSL across Caco-2 cells was performed by Agilent LC-MS (6420 Triple Quad, […]). A symmetrical 4.6 × 250 mm C18 column (GL Sciences, Tokyo, Japan) was used for fragments separations. The analysis was done in the MS Scan mode, and the injection volume was set to 20 μL. The peptide was applied in formic acid as an organic regulator to improve the MS signal of the peptide. Solvents A and B were formic acid/milli Q water (0.1:100, v/v) and formic acid/acetonitrile (0.1:100, v/v). For WGAPSL, the sample elution was run at 0.7 mL/min using a linear gradient of solvent B in A from 18% to 43% for 25 min, 43–100% for 5 min, and 100–18% for 10 min to equalize the column. The accumulation and ionization conditions in the ion trap were optimized automatically, and the target mass of the molecular ion was as follows: m/z 630.633 (WGAPSL).

[9] = tested on: pepsin and trypsin; assay: Simulated gastrointestinal digestion (two-stage pepsin then trypsin hydrolysis); type: in vitro ADME; settings: 1 mg/mL in HBSS, pepsin pH 2.0, E/S 1:50 w/w, 37 °C, 90 min, then trypsin pH 7.5, E/S 1:50 w/w, 4 h, LC-MS, mean ± spread
Experimental: Simulated gastrointestinal digestion was done based on the method of Quirós et al.. Synthetic peptide (1 mg/mL) was prepared in HBSS and acidified with HCl to reach pH 2.0, then hydrolyzed with 1:10,000 pepsin at an enzyme/substrate ratio of 1:50 (w/w), and incubated in constant temperature water oscillation at 37 °C for 90 min with a low shaking rate (120 rpm). After gastric digestion, samples were adjusted to pH 7.5 with saturated NaHCO3 and 1:250 trypsin was added at an enzyme/substrate ratio of 1:50 (w/w), and incubated in constant temperature water oscillation at 37 °C for 4 h with a low shaking rate (120 rpm). Reactions were stopped in a boiling water bath for 10 min. Digested samples were centrifuged (3K15, SIGMA Laborzentrifugen GmbH, Germany) at 30,000× g at 4 °C for 20 min and diluted 100 times to analyze peptide concentrations using liquid chromatography-tandem mass spectrometry (LC-MS, 1200, Agilent, CA, USA).

Substance: Gln-Ile-Gly-Leu-Phe [QIGLF]
Change of Papp value after cytochalasin D treatment [1]: significantly (p < 0.05) increased

Substance: Val-Pro-Pro [VPP]
Papp value [2]: 0.005 ×10⁻⁶ cm/s

fragment found [3]: APSL and PSL and GAPSL and WGA and WG
Substance: WGAPSL
cleaved bond [4]: W-G, 120 min; also recorded: P-S, 120 min; also recorded: S-L, 120 min

P-glycoprotein substrate status [5]: not a substrate of P-glycoprotein | Effect of wortmannin on peptide concentration (BL side) ([8]; 30 min preincubation with 500 nM wortmannin (transcytosis inhibitor)): did not significantly (p > 0.05) affect | Effect of Gly-Pro on peptide transport ([8]; 30 min preincubation with 10 mM Gly-Pro (PepT1 substrate)): not significantly (p > 0.05) decreased | Effect of sodium azide on peptide transport ([8]; 30 min preincubation with 10 mM sodium azide (ATP synthesis inhibitor)): A similar result | Increase of peptide concentration in the BL side vs control, with cytochalasin D ([8]; 30 min preincubation with cytochalasin D 0.5 μg/mL (tight junction disruptor), p < 0.05): 66% | Stability (intact peptide) after simulated gastric and intestinal digestion [9]: 83.9% ± 1.98
Substance: WGAPSL [WGAPSL, Trp-Gly-Ala-Pro-Ser-Leu]
viability at 2 h, 10000 µM [6]: 27% | Cytotoxicity for Caco-2 cells ([7]; 1 mM peptide in DMEM): non-toxic | Cytotoxicity for Caco-2 cells ([7]; 2 mM peptide in DMEM): non-toxic
